These results are taken from patent US20090226398A1, “ANTI-VIRAL COMPOUNDS, COMPOSITIONS, AND METHODS OF USE” (Genelabs Technologies, Inc., priority 2008, published 2009).

Usually EC50 stands for the concentration at which the effect is half-maximal.

In this test the test system is HCV replication. The test is described as follows: Replicon Assay (Huh-lucubineo-ET cells, luciferase readout). Particulars: Hepatitis C virus; ET (Huh-lucubineo-ET) HCV replicon cell line; luciferase activity 48-72 hours after compound addition; 6 dilutions. The test is classed as cell-based. In short, it runs like this: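 Huh-lucubineo-ET cells stably carrying a firefly luciferase-ubiquitin-neo/NS3-5B ET replicon (adaptive mutations E1202G, T1280I, K1846T) were plated 24 h before compound, then treated at 5 or 50 μM or six 3-fold dilutions. Luciferase read 48-72 h later; % inhibition vs no-compound control, EC50/TC50 from Hill-equation fit.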
In general terms: A replicon is a self-replicating genome or part of one, used to study replication in cells.

`CC(F)(F)COc1ccc(-c2ccc(Cn3cc4nc(-c5cccc(F)c5F)nc-4cn3)nn2)c(C(F)(F)F)c1` [Compound 231, 2-(2,3-Difluoro-phenyl)-5-{6-[4-(2,2-difluoro-propoxy)-2-trifluoromethyl-phenyl]-pyridazin-3-ylmethyl}-5H-imidazo[4,5-d]pyridazine] had a concentration for a half-maximal effect (EC50) of 164 nM. This lies in the sub-micromolar range.
Then `O=[N+]([O-])c1cc(C(F)(F)F)ccc1-c1ccc(Cn2cc3nc(-c4cccc(F)c4F)nc-3cn2)cn1` [Compound 286, 2-(2,3-Difluoro-phenyl)-5-[6-(2-nitro-4-trifluoromethyl-phenyl)-pyridin-3-ylmethyl]-5H-imidazo[4,5-d]pyridazine], with 59 nM; and `COc1cccc(-c2ccc(Cn3cc4nc(-c5cccc(F)c5F)nc-4cn3)nn2)c1OC` [Compound 202, 2-(2,3-Difluoro-phenyl)-5-[6-(2,3-dimethoxy-phenyl)-pyridazin-3-ylmethyl]-5H-imidazo[4,5-d]pyridazine], with at least 50000 nM; and `Cc1ccc(-c2ccc(Cn3cc4nc(-c5cccc(F)c5F)nc-4cn3)c(N)n2)c(C(F)(F)F)c1` [Compound 240, 3-[2-(2,3-Difluoro-phenyl)-imidazo[4,5-d]pyridazin-5-ylmethyl]-6-(4-methyl-2-trifluoromethyl-phenyl)-pyridin-2-ylamine], with 44 nM.
Consider `Fc1cccc(-c2ccc(Cn3cc4nc(-c5cccc(F)c5F)nc-4cn3)nn2)c1` [Compound 222, 2-(2,3-Difluoro-phenyl)-5-[6-(3-fluoro-phenyl)-pyridazin-3-ylmethyl]-5H-imidazo[4,5-d]pyridazine], for which the EC50 is at least 50000 nM.
In turn, `Fc1cccc(-c2nc3cnn(Cc4ccc(-c5ccc(-c6cccnc6)cc5C(F)(F)F)nn4)cc-3n2)c1F` [Compound 204, 2-(2,3-Difluoro-phenyl)-5-[6-(4-pyridin-3-yl-2-trifluoromethyl-phenyl)-pyridazin-3-ylmethyl]-5H-imidazo[4,5-d]pyridazine] came in with a concentration for a half-maximal effect (EC50) of 656 nM.
Then `CCCOc1ccc(-c2ccc(Cn3cc4nc(-c5cccc(F)c5F)nc-4cn3)cn2)c(C)c1` [Compound 234, 2-(2,3-Difluoro-phenyl)-5-[6-(2-methyl-4-propoxy-phenyl)-pyridin-3-ylmethyl]-5H-imidazo[4,5-d]pyridazine], with 1210 nM; and `Fc1cccc(-c2nc3cnn(Cc4ccc(Oc5ccc(C(F)(F)F)cc5C(F)(F)F)cc4)cc-3n2)c1F` [Compound 343, 5-[4-(2,4-Bis-trifluoromethyl-phenoxy)-benzyl]-2-(2,3-difluoro-phenyl)-5H-imidazo[4,5-d]pyridazine], with 26900 nM; and `Fc1cccc(-c2nc3cnn(Cc4ccc5sccc5c4)cc-3n2)c1F` [Compound 284, 5-Benzothiophen-5-ylmethyl-2-(2,3-difluoro-phenyl)-5H-imidazo[4,5-d]pyridazine], with at least 50000 nM.
With `COc1ccc(-c2ncc(Cn3cc4nc(-c5cccc(F)c5F)nc-4cn3)cn2)c(C(F)(F)F)c1` [Compound 271, 2-(2,3-Difluoro-phenyl)-5-[2-(4-methoxy-2-trifluoromethyl-phenyl)-pyrimidin-5-ylmethyl]-5H-imidazo[4,5-d]pyridazine], the concentration giving a half-maximal response (EC50) stood at 49 nM.
In the case of `Fc1cccc(-c2nc3cnn(Cc4ccc(-c5ccc(Cl)cc5C(F)(F)F)nc4)cc-3n2)c1F` [Compound 236, 5-[6-(4-Chloro-2-trifluoromethyl-phenyl)-pyridin-3-ylmethyl]-2-(2,3-difluoro-phenyl)-5H-imidazo[4,5-d]pyridazine], the concentration giving a half-maximal response (EC50) came to 15 nM. This EC50 is about 3.3-fold lower than that of the compound before.
Under `CCCOc1ccc(-c2cnc(Cn3cc4nc(-c5cccc(F)c5F)nc-4cn3)nc2)c(C(F)(F)F)c1` [Compound 266, 2-(2,3-Difluoro-phenyl)-5-[5-(4-propoxy-2-trifluoromethyl-phenyl)-pyrimidin-2-ylmethyl]-5H-imidazo[4,5-d]pyridazine] stands 218 nM; under `N#CCOc1ccc(-c2ccc(Cn3cc4nc(-c5cccc(F)c5F)nc-4cn3)nn2)c(C(F)(F)F)c1` [Compound 325, (4-{6-[2-(2,3-Difluoro-phenyl)-imidazo[4,5-d]pyridazin-5-ylmethyl]-pyridazin-3-yl}-3-trifluoromethyl-phenoxy)-acetonitrile], 107 nM.
In the case of `FCCOc1ccc(-c2ccc(Cn3cc4nc(-c5cccc(F)c5F)nc-4cn3)nn2)c(C(F)(F)F)c1` [Compound 352, 2-(2,3-Difluoro-phenyl)-5-{6-[4-(2-fluoro-ethoxy)-2-trifluoromethyl-phenyl]-pyridazin-3-ylmethyl}-5H-imidazo[4,5-d]pyridazine], the EC50 worked out at 22.8 nM.
`N#Cc1cc(C(F)(F)F)ccc1-c1ccc(Cn2cc3nc(-c4cccc(F)c4F)nc-3cn2)cn1` [Compound 340, 2-{5-[2-(2,3-Difluoro-phenyl)-imidazo[4,5-d]pyridazin-5-ylmethyl]-pyridin-2-yl}-5-trifluoromethyl-benzonitrile]: the half-maximal effective concentration (EC50) came out at 95 nM.
As to `Oc1nc(-c2ccc(C(F)(F)F)cc2C(F)(F)F)ccc1Cn1cc2nc(-c3cccc(F)c3F)nc-2cn1` [Compound 361, 6-(2,4-Bis-trifluoromethyl-phenyl)-3-[2-(2,3-difluoro-phenyl)-imidazo[4,5-d]pyridazin-5-ylmethyl]-pyridin-2-ol], the half-maximal effective concentration (EC50) is 13700 nM.
Under `Fc1cccc(-c2nc3cnn(Cc4ccc(-c5ccc(C(F)(F)F)cc5C(F)(F)F)nc4)cc-3n2)c1F` [Compound 130, 5-[6-(2,4-Bis-trifluoromethyl-phenyl)-pyridin-3-ylmethyl]-2-(2,3-difluoro-phenyl)-5H-imidazo[4,5-d]pyridazine] stands 8 nM; under `Fc1cccc(-c2nc3cnn(Cc4cccc(-c5ccncc5)c4)cc-3n2)c1F` [Compound 301, 2-(2,3-Difluoro-phenyl)-5-(3-pyridin-4-yl-benzyl)-5H-imidazo[4,5-d]pyridazine], 35000 nM; under `Nc1cc(C(F)(F)F)ccc1-c1ccc(Cn2cc3nc(-c4cccc(F)c4F)nc-3cn2)cn1` [Compound 335, 2-{5-[2-(2,3-Difluoro-phenyl)-imidazo[4,5-d]pyridazin-5-ylmethyl]-pyridin-2-yl}-5-trifluoromethyl-phenylamine], 2390 nM.
`Fc1cccc(-c2nc3cnn(Cc4ccc(-c5ccc(C(F)(F)F)cc5Cl)nc4)cc-3n2)c1F` [Compound 237, 5-[6-(2-Chloro-4-trifluoromethyl-phenyl)-pyridin-3-ylmethyl]-2-(2,3-difluoro-phenyl)-5H-imidazo[4,5-d]pyridazine] came in with an EC50 of 119 nM.
Then `CC(C)CCOc1ccc(-c2ccc(Cn3cc4nc(-c5cccc(F)c5F)nc-4cn3)nn2)c(C(F)(F)F)c1` [Compound 329, 2-(2,3-Difluoro-phenyl)-5-{6-[4-(3-methyl-butoxy)-2-trifluoromethyl-phenyl]-pyridazin-3-ylmethyl}-5H-imidazo[4,5-d]pyridazine], with 858 nM; and `Fc1cccc(-c2nc3cnn(Cc4ccc(-c5cncnc5)cc4)cc-3n2)c1F` [Compound 293, 2-(2,3-Difluoro-phenyl)-5-(4-pyrimidin-5-yl-benzyl)-5H-imidazo[4,5-d]pyridazine], with at least 50000 nM.
With `O=S(=O)(Oc1ccc(-c2ccc(Cn3cc4nc(-c5cccc(F)c5F)nc-4cn3)nn2)c(C(F)(F)F)c1)C(F)(F)F` [Compound 353, Trifluoro-methanesulfonic acid 4-{6-[2-(2,3-difluoro-phenyl)-imidazo[4,5-d]pyridazin-5-ylmethyl]-pyridazin-3-yl}-3-trifluoromethyl-phenyl ester], the response was half-maximal at 1190 nM (EC50).
With `Fc1ccc(COc2ccc(Cn3cc4nc(-c5cccc(F)c5F)nc-4cn3)cc2)cc1` [Compound 297, 2-(2,3-Difluoro-phenyl)-5-[4-(4-fluoro-benzyloxy)-benzyl]-5H-imidazo[4,5-d]pyridazine], the EC50 was 5740 nM. Against the preceding compound, the EC50 is about 4.8-fold higher.
For `Fc1cccc(-c2nc3cnn(Cc4ccc(-c5ccc(C(F)(F)F)cc5)nn4)cc-3n2)c1F` [Compound 116, 2-(2,3-Difluoro-phenyl)-5-[6-(4-trifluoromethyl-phenyl)-pyridazin-3-ylmethyl]-5H-imidazo[4,5-d]pyridazine], the EC50 is at least 50000 nM.
For the compound `Fc1cccc(-c2nc3cnn(Cc4ccc(OCc5ccccc5)cc4)cc-3n2)c1F` [Compound 280, 5-(4-Benzyloxy-benzyl)-2-(2,3-difluoro-phenyl)-5H-imidazo[4,5-d]pyridazine], the concentration giving a half-maximal response (EC50) is at least 50000 nM.
`Fc1cccc(-c2nc3cnn(Cc4cccc(-c5ccc(C(F)(F)F)cc5C(F)(F)F)c4)cc-3n2)c1F` [Compound 256, 5-(2′,4′-Bis-trifluoromethyl-biphenyl-3-ylmethyl)-2-(2,3-difluoro-phenyl)-5H-imidazo[4,5-d]pyridazine] gave an EC50 of 9790 nM.
Turning to `CN(C)Cc1ccc(-c2ccc(Cn3cc4nc(-c5cccc(F)c5F)nc-4cn3)nn2)cc1` [Compound 233, (4-{6-[2-(2,3-Difluoro-phenyl)-imidazo[4,5-d]pyridazin-5-ylmethyl]-pyridazin-3-yl}-benzyl)-dimethyl-amine], the concentration giving a half-maximal response (EC50) was at least 50000 nM.
Consider `Fc1cc(C(F)(F)F)ccc1-c1ccc(Cn2cc3nc(-c4cccc(F)c4F)nc-3cn2)nc1` [Compound 254, 2-(2,3-Difluoro-phenyl)-5-[5-(2-fluoro-4-trifluoromethyl-phenyl)-pyridin-2-ylmethyl]-5H-imidazo[4,5-d]pyridazine], for which the concentration giving a half-maximal response (EC50) is at least 50000 nM.
`Fc1cc(Cn2cc3nc(-c4cccc(F)c4F)nc-3cn2)ccc1Br` [Compound 309, 5-(4-Bromo-3-fluoro-benzyl)-2-(2,3-difluoro-phenyl)-5H-imidazo[4,5-d]pyridazine] gave a concentration for a half-maximal effect (EC50) of 61000 nM.
Take `Fc1cccc(-c2nc3cnn(Cc4cccc(C(F)(F)F)c4)cc-3n2)c1F` [Compound 289, 2-(2,3-Difluoro-phenyl)-5-(3-trifluoromethyl-benzyl)-5H-imidazo[4,5-d]pyridazine]: the EC50 is at least 50000 nM.
